In patent publication US20060025390A1, “Treatment of hormone allergy and related symptoms and disorders” (priority 2004, published 2006):

How the values were obtained:
[1] = system: serum IgG anti-estrogen antibodies; test: ELISA binding of IgG estrogen antibodies to different hormones in solid phase; parameters: species or system human; conditions: for IgG binding (optical density): hormone in solid phase, 405 nm; for IgG % reaction: relative to estrogen = 100
Protocol: (§1) The ELISA inhibition method was used to determine specificity and cross-reactivity between different hormones and to ensure the degree of human IgG, IgM and IgE estrogen or progesterone binding to estrogen or progesterone in solid phase. […] 100 μl of sera from three different patients with high IgG, IgM or IgE antibodies against 17-α-hydroxyprogesterone was added to all wells. After shaking and incubation for 1 hr at room temperature, addition of enzyme labeled anti-human IgG, IgM or IgE, repeat of incubation, washing, and addition of substrate, color development was measured at 405 nm. Results were calculated as percentage of anti-17-α-hydroxyprogesterone binding to 17-α-hydroxyprogesterone and other hormones. Also, anti-estrogen binding to estrogen and other hormones in solid phase by progesterone in liquid phase was performed and calculated in a similar manner.
(§2) Human sera containing 17-α-hydroxyprogesterone IgG-, IgM- and IgE-binding antibodies were reacted against progesterone, estrogen, hydrocortisone and cholesterol. In comparison to 100% binding of anti-17-α-hydroxyprogesterone-binding to 17-α-hydroxyprogesterone, the IgG anti-17-α-hydroxyprogesterone-binding to progesterone, estrogen, hydrocortisone and cholesterol was 69-77%, 25-30%, 39-53%, and less than 10% respectively (Table 4). The % binding of serum IgM and IgE anti-17-α-hydroxyprogesterone to 17-1-hydroxyprogesterone, progesterone, estrogen, hydrocortisone and cholesterol was similar to the binding of IgG. This binding of anti-17-α-hydroxyprogesterone to progesterone was the highest, followed by hydrocortisone, then estrogen, to almost no binding with cholesterol. Similar to this, human sera with IgG, IgM and IgE binding antibodies against estrogen were reacted with progesterone, 17-α-hydroxyprogesterone, hydrocortisone and cholesterol, in the presence of estrogen.

[2] = system: serum IgM anti-estrogen antibodies; test: ELISA binding of IgM estrogen antibodies to different hormones in solid phase; parameters: species or system human; conditions: for IgM binding (optical density): hormone in solid phase, 405 nm; for IgM % reaction: relative to estrogen = 100
Protocol: as §1, §2

[3] = system: serum IgE anti-estrogen antibodies; test: ELISA binding of IgE estrogen antibodies to different hormones in solid phase; parameters: species or system human; conditions: for IgE binding (optical density): hormone in solid phase, 405 nm; for IgE % reaction: relative to estrogen = 100
Protocol: as §1, §2

[4] = system: serum IgG anti-estrogen antibodies; test: Competition ELISA: absorption of serum IgG anti-estrogen with specific and non-specific antigens; assay type: binding, human; conditions: for IgG level after absorption: absorption with 250 μg/mL, optical density 405 nm
Protocol: (§3) For this, microtiter plates were coated with hormones and blocked by the addition of 2% BSA in PBST. 100 μl of serum diluent buffer was added to all wells. […] After 60 minutes incubation 100 μl serum anti-estrogen or anti-progesterone was added to all wells. […] Results were calculated as percentage of inhibition in antigen-antibody reaction.
(§4) To examine whether antibodies to estrogen or progesterone are specific or cross-reactive, we performed competition ELISA by adding specific and non-specific antigens in liquid phase and examined prevention of serum antibody binding to the antigen in solid phase. […] For IgE anti-estrogen, this inhibition by estrogen-BSA was between 54-62%, and with progesterone-BSA, from 37-43%. […] This cross-reaction between estrogen and progesterone antibodies may be due to structural similarities between these two hormones.

[5] = system: serum IgE anti-17-α-hydroxyprogesterone antibodies; test: ELISA binding of IgE 17-α-hydroxyprogesterone antibodies to different hormones in solid phase; parameters: species or system human; conditions: for IgE binding (optical density): hormone in solid phase, 405 nm; for IgE % reaction: relative to 17-α-hydroxyprogesterone = 100
Protocol: as §1, §2

[6] = system: serum IgG anti-17-α-hydroxyprogesterone antibodies; test: ELISA binding of IgG 17-α-hydroxyprogesterone antibodies to different hormones in solid phase; parameters: species or system human; conditions: for IgG binding (optical density): hormone in solid phase, 405 nm; for IgG % reaction: relative to 17-α-hydroxyprogesterone = 100
Protocol: as §1, §2

[7] = system: serum IgM anti-17-α-hydroxyprogesterone antibodies; test: ELISA binding of IgM 17-α-hydroxyprogesterone antibodies to different hormones in solid phase; parameters: species or system human; conditions: for IgM binding (optical density): hormone in solid phase, 405 nm; for IgM % reaction: relative to 17-α-hydroxyprogesterone = 100
Protocol: as §1, §2

[8] = system: serum IgE anti-estrogen antibodies; test: Competition ELISA: absorption of serum IgE anti-estrogen with specific and non-specific antigens; assay type: binding, human; conditions: for IgE level after absorption: absorption with 250 μg/mL, optical density 405 nm
Protocol: as §3, §4

[9] = system: patients experiencing hormone allergy symptoms; test: Clinical responses of hormone allergy symptoms to intradermal dilute progesterone (or estrogen); assay type: in vivo, human; conditions: 0.4 mg intradermally
Description: Patients experiencing several hormone allergy symptoms experienced relief when administered dilute doses of progesterone either sublingually or intradermally.
The symptoms measured were irritation or pain in the neck, nose, eyes, throat, ear, skin, back, hips, upper extremities and lower extremities, headache, and shortness of breath. […]
Patients were designated as responding patients in Table 1 if they experienced any relief of the indicated symptom. Patients were also asked to estimate the amount of improvement in the symptom, an average of which is
In Table 2 the probability that positive results (i.e. patients responding to treatment) were due to random effects was calculated using standard statistical analysis of patient tests. It was assumed that if the treatment has no effect, there is a 50% chance that a patient will indicate a positive response and a 50% chance that a patient will indicate a negative response. From this assumption, coupled with the actual data, one may calculate the probability that positive responses are due to an actual effect of the treatment and not simply random effects. In general, results with a less than 1% chance of being random are considered highly significant. Results with a less than 5% chance of being random are normally conclusively labeled as nonrandom. Thus, the results observed for most of the symptoms in Table 2 are highly significant, with only the results for ear irritation and pain falling merely in the nonrandom category.
Hormone samples may be prepared in any way suitable for the intended administration route. For administration through intradermal injection, samples may be prepared as they were in the studies of Examples 2 and 3. Specifically, the progesterone was formulated from commercially available injectable progesterone. Each ml of the final formulation contained […] of progesterone and 10% benzyl alcohol as a preservative in sesame oil. 0.1 ml was administered per patient intradermally. Estrogen samples were similarly prepared.

[10] = relative to estrogen, over three sera
[11] = antigen in liquid phase, over the three sera

Substance: estrogen
- IgG anti-estrogen binding [1, 10]: 100%
- IgG binding (optical density) ([1]; sample 1): 1.2
- IgG % reaction ([1]; sample 1): −100%
- IgG binding (optical density) ([1]; sample 2): 1.8
- IgG % reaction ([1]; sample 2): −100%
- IgG binding (optical density) ([1]; sample 3): 0.92
- IgG % reaction ([1]; sample 3): −100%
- IgM anti-estrogen binding [2, 10]: 100%
- IgM binding (optical density) ([2]; sample 1): 0.9
- IgM % reaction ([2]; sample 1): −100%
- IgM binding (optical density) ([2]; sample 2): 2.1
- IgM % reaction ([2]; sample 2): −100%
- IgM binding (optical density) ([2]; sample 3): 1.3
- IgM % reaction ([2]; sample 3): −100%
- IgE anti-estrogen binding [3, 10]: 100%
- IgE binding (optical density) ([3]; sample 1): 0.8
- IgE % reaction ([3]; sample 1): −100%
- IgE binding (optical density) ([3]; sample 2): 1.5
- IgE % reaction ([3]; sample 2): −100%
- IgE binding (optical density) ([3]; sample 3): 1.6
- IgE % reaction ([3]; sample 3): −100%
- inhibition of anti-estrogen binding to estrogen (IgG) [4, 11]: did not significantly absorb
- IgG level after absorption ([4]; serum sample 1, before absorption 1.83): 1.53
- IgG level after absorption ([4]; serum sample 2, before absorption 1.25): 0.95
- IgG level after absorption ([4]; serum sample 3, before absorption 0.76): 0.54
- IgE binding (optical density) ([5]; sample 1): 0.42
- IgE % reaction ([5]; sample 1): −29%
- IgE binding (optical density) ([5]; sample 2): 0.75
- IgE % reaction ([5]; sample 2): −31%
- IgE binding (optical density) ([5]; sample 3): 0.37
- IgE % reaction ([5]; sample 3): −25%
- IgG anti-17-α-hydroxyprogesterone binding ([6]; in comparison to 100% binding to 17-α-hydroxyprogesterone, over three sera): 25-30%
- IgG binding (optical density) ([6]; sample 1): 0.48
- IgG % reaction ([6]; sample 1): −30%
- IgG binding (optical density) ([6]; sample 2): 0.24
- IgG % reaction ([6]; sample 2): −25%
- IgG binding (optical density) ([6]; sample 3): 0.18
- IgM binding (optical density) ([7]; sample 1): 0.4
- IgM % reaction ([7]; sample 1): −31%
- IgM binding (optical density) ([7]; sample 2): 0.41
- IgM % reaction ([7]; sample 2): −25%
- IgM binding (optical density) ([7]; sample 3): 0.29
- IgM % reaction ([7]; sample 3): −32%
- inhibition of IgE anti-estrogen binding [8, 11]: did not significantly absorb
- IgE level after absorption ([8]; serum sample 1, before absorption 2.15): 1.70
- IgE level after absorption ([8]; serum sample 2, before absorption 1.66): 1.30
- IgE level after absorption ([8]; serum sample 3, before absorption 1.34): 0.86
- symptom relief in patients not relieved by progesterone treatment [9]: experience relief
